Laboratory results as given in PubChem BioAssay (NCI).
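Briefly, cells in 96-well plates were exposed to five compound concentrations for 48 h, and endpoints were estimated by linear interpolation. The concentration for 50% growth inhibition is given as GI50. TGI denotes the concentration required for complete inhibition of growth.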

Key:
Assay in all cases: NCI anticancer screen, dose series, 48 h
[1] = test system: ACHN renal
[2] = test system: CCRF-CEM leukemia
[3] = test system: DLD-1 colon
[4] = test system: NCI-H522 lung
[5] = test system: SK-MEL-5 melanoma
[6] = test system: SK-OV-3 ovarian
[7] = test system: UO-31 renal
[8] = test system: M14 melanoma
[9] = test system: M19-MEL melanoma
[10] = test system: NCI/ADR-RES ovarian

Row | SMILES | TGI [1] [µM] | TGI [2] [µM] | TGI [3] [µM] | TGI [4] [µM] | TGI [5] [µM] | TGI [6] [µM] | TGI [7] [µM] | TGI [8] [µM] | TGI [9] [µM] | TGI [10] [µM] | GI50 [2] [µM] | GI50 [3] [µM] | GI50 [9] [µM] | GI50 [4] [µM] | GI50 [10] [µM] | GI50 [5] [µM] | GI50 [6] [µM] | GI50 [7] [µM]
1 | COC1=NCc2ccccc2-c2ccccc21 | > 100 | > 100 | > 100 | > 100 | > 100 | > 100 | > 100 |  |  |  |  |  |  |  |  |  |  | 
2 | COC(=O)Cc1cc(O)c2c(c1O)C(=O)c1ccccc1C2=O | > 77.9 | > 100 | > 100 | > 100 | > 100 | > 100 | > 100 | > 100 | > 100 | > 100 |  |  |  |  |  |  |  | 
3 | C1=C(c2ccccc2)SC(N2CCCCC2)S1 (stereo unspecified) |  | > 100 | > 100 | > 100 |  | > 100 | > 100 | > 100 | > 100 |  |  |  |  |  |  |  |  | 
4 | CCCCCOc1ccc(C=Nc2ccc(CCc3ccc(N=Cc4ccc(OCCCCC)cc4)cc3)cc2)cc1 |  | > 100 | > 100 | > 100 | > 100 | > 100 | > 100 |  | > 100 | > 100 |  |  |  |  |  |  |  | 
5 | Cc1ccc(C)c(NC(=O)C(=O)C(C(=O)c2ccc3ccccc3c2)C2OC(=O)c3ccccc32)c1 (stereo unspecified) | 87.1 | 64.9 | 64.3 | 22.5 | 31.5 | 48.9 | 31.6 | 28.8 | 30.5 |  |  |  |  |  |  |  |  | 
6 | Cc1cc([NH-])c([NH-])cc1C.[Cl][Pt+2][Cl] |  | 61.5 | 28.9 | 24.5 | 25.3 | > 100 | > 100 |  | 31.2 | 42.7 | 1.95 | 8 | 8.79 | 7.39 | 16.3 | 9.48 | > 96.8 | > 77.4
7 | C#CCNC(CSSCC(N)C(=O)O)C(=O)O (stereo unspecified) | > 100 | > 100 |  | > 100 | > 100 | > 100 | > 100 | > 100 |  | > 100 |  |  |  |  |  |  |  | 
8 | O=c1[nH]cc(NCCCl)c(=O)[nH]1 | > 100 | > 100 |  | > 100 | > 100 | > 100 | > 100 | > 100 |  | > 100 |  |  |  |  |  |  |  | 
9 | O=C(Nc1ccc(N2C(=O)CSC2c2ccccc2O)cc1)c1ccc(N2C(=O)CSC2c2ccccc2O)cc1 (stereo unspecified) | > 100 | > 100 |  | > 100 | > 100 | 62.3 | > 100 | 61.3 |  | > 100 |  |  |  |  |  |  |  | 
10 | Cc1cc(C)nc(NS(=O)(=O)c2ccc(NC(=O)c3c4ccccc4nc4ccccc34)cc2)n1 | > 100 | > 100 |  | > 100 | > 100 | > 100 | > 100 | > 100 |  | > 100 |  |  |  |  |  |  |  | 
11 | OC1[C@@H]2[C@@H](O)CCCN2C[C@@H](O)[C@H]1O (stereo partly specified) | > 100 | > 100 |  | > 100 | > 100 | > 100 | > 100 | > 100 |  | > 100 |  |  |  |  |  |  |  | 
12 | N#Cc1c(-c2ccc(Cl)cc2)c2c(nn3c4ccc5ccccc5c4nnc23)[nH]c1=O | 8.76 | > 100 |  | 3.56 | 6.27 | 7.99 | 12.6 | 6.14 |  | 26 |  |  |  |  |  |  |  | 
13 | CCC/C(Cl)=N\OC(=O)Nc1ccc(F)cc1 | 24.7 | 3.85 |  | 4.12 | 26.7 | > 59.7 | 31.5 | 29.6 |  | > 62.3 |  |  |  |  |  |  |  | 
14 | C=CCSC1=N/C(=C\c2ccc(Cl)cc2)C(=O)N1CC=C | > 100 | 51.8 |  | 79.9 | 31 | > 100 | > 100 | > 100 |  | > 100 |  |  |  |  |  |  |  | 
